Values quoted from earlier work, collected in US20060083786A1 (Glenmark Pharmaceuticals Limited, priority 2004, published 2006).

Settings: in vivo

Question: For `O=C(O)COCCN1CCN([C@H](c2ccccc2)c2ccc(Cl)cc2)CC1` [Levocetirizine], which “side effects on the central nervous system” value is on record?
Answer: free from side effects
